Structures can show the parent of a compound that is named as a salt. The source made the active and inactive calls. The rule behind the calls is not given here.
Legend:
[1] = test system: HEK293; assay: cells; assay type: ADME, cell-based; details: Homo sapiens, HEK293, 24 h
Description: Cytotoxicity against HEK293 cells assessed as cell growth inhibition measured after 24 hrs by MTT assay

[2] = test system: PC-3; assay: cells; assay type: functional, cell-based; details: Homo sapiens, PC-3, 24 h
Description: Anticancer activity against human PC-3 cells assessed as cell growth inhibition measured after 24 hrs by MTT assay

[3] = test system: MDA-MB-231; assay: cells; assay type: functional, cell-based; details: Homo sapiens, MDA-MB-231, 24 h
Description: Anticancer activity against human MDA-MB-231 cells assessed as cell growth inhibition measured after 24 hrs by MTT assay

[4] = test system: DU-145; assay: cells; assay type: functional, cell-based; details: Homo sapiens, DU-145, 24 h
Description: Anticancer activity against human DU-145 cells assessed as cell growth inhibition measured after 24 hrs by MTT assay

[5] = test system: MCF7; assay: cells; assay type: functional, cell-based; details: Homo sapiens, MCF7, 24 h
Description: Anticancer activity against human MCF7 cells assessed as cell growth inhibition measured after 24 hrs by MTT assay

[6] = test system: HepG2; assay: cells; assay type: functional, cell-based; details: Homo sapiens, HepG2, 24 h
Description: Anticancer activity against human HepG2 cells assessed as cell growth inhibition measured after 24 hrs by MTT assay

[7] = test system: DLD-1; assay: cells; assay type: functional, cell-based; details: Homo sapiens, DLD-1, 24 h
Description: Anticancer activity against human DLD-1 cells assessed as cell growth inhibition measured after 24 hrs by MTT assay

[8] = test system: A549; assay: cells; assay type: functional, cell-based; details: Homo sapiens, A549, 24 h
Description: Anticancer activity against human A549 cells assessed as cell growth inhibition measured after 24 hrs by MTT assay

[9] = test system: DNA; assay: Binding affinity to DNA (unknown origin) at 0.1 to 0.2 mM by agarose gel electrophoresis; assay type: nucleic-acid assay; details: dose mM 0.1-0.2
[10] = target: Tubulin (Homo sapiens) (UniProt P68371+Q9H4B7+P0DPH7+P68366+Q13509+Q71U36+P04350+Q3ZCM7+P07437+P68363+Q9BQE3+Q6PEY2+Q13885+Q9BVA1+Q9BUF5); assay: Inhibition of tubulin (unknown origin) polymerization assessed as stabilization of microtubules at10 uM measured up to 60 mins in presence of GTP; assay type: protein-complex assay; details: dose 10.0 µM, time min <=60
[11] = test system: MDA-MB-231; assay: Induction of mitochondrial membrane depolarization in human MDA-MB-231 cells at 10 uM measured after 24 hrs by JC-1 staining based flow cytometry analysis (reference value: 0.89 to 3.24 %); assay type: functional

For COc1ccc2c(c1)c1cc(C)c3c(c1n2Cc1cccc(C)c1)C=CC(C)(C)O3, the IC50 [1] was > 100 µM, the IC50 [2] was 35.5 µM and the IC50 [3] was 46.5 µM. It also gave an IC50 [4] of 55.7 µM, an IC50 [5] of 48.2 µM and an IC50 [6] of 34.6 µM. For the same molecule, the IC50 [7] was 73.1 µM and the IC50 [8] was 35.7 µM.

COc1ccc2c(c1)c1cc(C)c3c(c1n2Cc1ccccc1Br)C=CC(C)(C)O3 was tested, and the IC50 [1] was > 100 µM, the IC50 [2] was 15.2 µM and the IC50 [3] was > 100 µM. The IC50 [4] was > 100 µM, the IC50 [5] was 59.1 µM and the IC50 [6] was 16 µM. For the same molecule, the IC50 [7] was > 100 µM and the IC50 [8] was 56.5 µM.

For COc1cc2c3cc(C=O)c4c(c3n(Cc3cccc(Cl)c3)c2cc1OC)C=CC(C)(C)O4, the IC50 [2] was 70.5 µM, the IC50 [3] was > 100 µM and the IC50 [4] was > 100 µM. For the same molecule, the IC50 [5] was 72.4 µM, the IC50 [6] was > 100 µM and the IC50 [7] was > 100 µM. The IC50 [8] was > 100 µM.

In the case of COc1cc2c3cc(C)c4c(c3n(Cc3cccc(C)c3)c2cc1OC)C=CC(C)(C)O4, the IC50 [1] is reported as > 100 µM, the IC50 [2] is reported as 14.1 µM and the IC50 [3] is reported as 28 µM. The IC50 [4] was > 100 µM, the IC50 [5] was 64.9 µM and the IC50 [6] was 9.6 µM. It also gave an IC50 [7] of 73.4 µM and an IC50 [8] of 96.6 µM.

For COc1cccc(Cn2c3cc(OC)c(OC)cc3c3cc(C=O)c4c(c32)C=CC(C)(C)O4)c1, the IC50 [2] was 77.2 µM, the IC50 [3] was > 100 µM and the IC50 [4] was > 100 µM. For the same molecule, the IC50 [5] was > 100 µM, the IC50 [6] was > 100 µM and the IC50 [7] was > 100 µM. For the same molecule, the IC50 [8] was > 100 µM.

COc1cc2[nH]c3c4c(c(C=O)cc3c2cc1OC)OC(C)(C)C=C4 was tested, and the IC50 [1] was > 100 µM, the IC50 [2] was 27.3 µM and the IC50 [3] was 8.3 µM. The IC50 [4] was 70 µM, the IC50 [5] was > 100 µM and the IC50 [6] was 35.5 µM. The IC50 [7] was > 100 µM and the IC50 [8] was 33.6 µM.

With C=CCn1c2cc(OC)c(OC)cc2c2cc(C)c3c(c21)C=CC(C)(C)O3 the IC50 [1] was > 100 µM, the IC50 [2] was > 100 µM and the IC50 [3] was 36.5 µM. The IC50 [4] was > 100 µM, the IC50 [5] was > 100 µM and the IC50 [6] was 42.9 µM. For the same molecule, the IC50 [7] was 75.3 µM and the IC50 [8] was > 100 µM.

With COc1ccc2c(c1)c1cc(C)c3c(c1n2Cc1ccccc1)C=CC(C)(C)O3 the IC50 [1] was > 100 µM, the IC50 [2] was 74.9 µM and the IC50 [3] was 46.5 µM. For the same molecule, the IC50 [4] was > 100 µM, the IC50 [5] was > 100 µM and the IC50 [6] was 41.8 µM. For the same molecule, the IC50 [7] was 52.8 µM and the IC50 [8] was 64 µM.

In the case of COc1cc2c3cc(C)c4c(c3n(Cc3cc(Cl)ccc3Cl)c2cc1OC)C=CC(C)(C)O4, the IC50 [2] is reported as 7.4 µM, the IC50 [3] is reported as 19.7 µM and the IC50 [4] is reported as > 100 µM. For the same molecule, the IC50 [5] was 29.4 µM, the IC50 [6] was 33.8 µM and the IC50 [7] was 35.4 µM. The IC50 [8] was 14.8 µM.

In the case of COc1ccc2c(c1)c1cc(C)c3c(c1n2Cc1ccc(F)cc1F)C=CC(C)(C)O3, the IC50 [1] is reported as > 100 µM, the IC50 [2] is reported as 13.3 µM and the IC50 [3] is reported as 23.2 µM. The IC50 [4] was > 100 µM, the IC50 [5] was > 100 µM and the IC50 [6] was 36.8 µM. For the same molecule, the IC50 [7] was 34.1 µM and the IC50 [8] was 88 µM.

With COc1ccc2c(c1)c1cc(C=O)c3c(c1n2Cc1ccccc1)C=CC(C)(C)O3 the IC50 [2] was 32.9 µM, the IC50 [3] was 30.7 µM and the IC50 [4] was > 100 µM. For the same molecule, the IC50 [5] was 32.8 µM, the IC50 [6] was 42.4 µM and the IC50 [7] was > 100 µM. The IC50 [8] was 36.6 µM.

For COc1cccc2c1C(=O)c1c(O)c3c(c(O)c1C2=O)C[C@@](O)(C(=O)CO)C[C@@H]3O[C@H]1C[C@H](N)[C@H](O)[C@H](C)O1 [DOXORUBICIN], the IC50 [6] was 8 µM, the Activity [9] was “Active” and the IC50 [7] was 10.2 µM.

With CC(=O)O[C@H]1C(=O)[C@@]2(C)[C@H]([C@H](OC(=O)c3ccccc3)[C@]3(O)C[C@H](OC(=O)[C@H](O)[C@@H](NC(=O)c4ccccc4)c4ccccc4)C(C)=C1C3(C)C)[C@]1(OC(C)=O)CO[C@@H]1C[C@@H]2O the Activity [10] was “Active”.

Work on N#CC(C#N)=NNc1cccc(Cl)c1 [CARBONYL CYANIDE M-CHLOROPHENYLHYDRAZONE] yielded an Activity [11] of 12.75%.

With COc1ccc2c(c1)c1cc(C)c3c(c1n2Cc1cc(F)ccc1F)C=CC(C)(C)O3 the IC50 [1] was > 100 µM, the IC50 [2] was 33.1 µM and the IC50 [3] was > 100 µM. The IC50 [4] was > 100 µM, the IC50 [5] was 51.8 µM and the IC50 [6] was 9.1 µM. The IC50 [7] was 54.2 µM and the IC50 [8] was 53.3 µM.

With CC/C(=C(\c1ccccc1)c1ccc(OCCN(C)C)cc1)c1ccccc1 [TAMOXIFEN CITRATE] the IC50 [1] was 27.3 µM, the IC50 [2] was 11.7 µM and the IC50 [3] was 12.8 µM. The IC50 [4] was 11.2 µM and the IC50 [5] was 6.2 µM.

For COc1cc2c3cc(C)c4c(c3n(Cc3ccccc3)c2cc1OC)C=CC(C)(C)O4, the IC50 [1] was > 100 µM, the IC50 [2] was 29.2 µM and the IC50 [3] was 28.5 µM. For the same molecule, the IC50 [4] was > 100 µM, the IC50 [5] was 71.9 µM and the IC50 [6] was 47.1 µM. It also gave an IC50 [7] of 42.1 µM and an IC50 [8] of 80.1 µM.

For COc1ccc2[nH]c3c4c(c(C=O)cc3c2c1)OC(C)(C)C=C4 [CLAULANSINE F], the IC50 [1] was 2.5 µM, the IC50 [2] was 56.4 µM and the IC50 [3] was 2.6 µM. The IC50 [4] was > 100 µM, the IC50 [5] was 3.9 µM and the IC50 [6] was 33.3 µM. The IC50 [7] was 54.7 µM and the IC50 [8] was > 100 µM.

In the case of COc1cccc(Cn2c3cc(OC)c(OC)cc3c3cc(C)c4c(c32)C=CC(C)(C)O4)c1, the IC50 [2] is reported as 20 µM, the IC50 [3] is reported as 33.4 µM and the IC50 [4] is reported as > 100 µM. It also gave an IC50 [5] of 65.6 µM, an IC50 [6] of 41.8 µM and an IC50 [7] of 56.1 µM. The IC50 [8] was 29.1 µM.

With C#CCn1c2cc(OC)c(OC)cc2c2cc(C)c3c(c21)C=CC(C)(C)O3 the IC50 [1] was > 100 µM, the IC50 [2] was 76.1 µM and the IC50 [3] was 9.7 µM. For the same molecule, the IC50 [4] was > 100 µM, the IC50 [5] was > 100 µM and the IC50 [6] was 38.8 µM. The IC50 [7] was > 100 µM and the IC50 [8] was 51.5 µM.

COc1cc2c3cc(C)c4c(c3n(C/C(I)=C\I)c2cc1OC)C=CC(C)(C)O4 was tested, and the IC50 [1] was > 100 µM, the IC50 [2] was 9.6 µM and the IC50 [3] was 4.4 µM. For the same molecule, the IC50 [4] was 47.6 µM, the IC50 [5] was 44.9 µM and the IC50 [6] was 15.5 µM. The IC50 [7] was 8.5 µM and the IC50 [8] was 71.7 µM.

In the case of C#CCn1c2ccc(OC)cc2c2cc(C)c3c(c21)C=CC(C)(C)O3, the IC50 [1] is reported as > 100 µM, the IC50 [2] is reported as > 100 µM and the IC50 [3] is reported as 52.4 µM. For the same molecule, the IC50 [4] was > 100 µM, the IC50 [5] was > 100 µM and the IC50 [6] was > 100 µM. For the same molecule, the IC50 [7] was 50.1 µM and the IC50 [8] was > 100 µM.

With COc1cc2c3cc(C)c4c(c3n(Cc3ccccc3Br)c2cc1OC)C=CC(C)(C)O4 the IC50 [1] was > 100 µM, the IC50 [2] was 9.3 µM and the IC50 [3] was 36.7 µM. For the same molecule, the IC50 [4] was 36.6 µM, the IC50 [5] was 70.7 µM and the IC50 [6] was 8.2 µM. It also gave an IC50 [7] of 35.9 µM and an IC50 [8] of 24.4 µM.

Source: ChEMBL document CHEMBL4665628, “Pyranocarbazole derivatives as potent anti-cancer agents triggering tubulin polymerization stabilization induced activation of caspase-dependent apoptosis and downregulation of Akt/mTOR in breast cancer cells” (Eur J Med Chem, 2019)
